Patent publication US9320281B2, “Readied in situ glyphosate herbicide soluble powder composition and its preparation process” (ALLVET QUIMICA INDUSTRIAL LTDA., priority 2011, dated 2016)
“And” between values parts separate entries of the source, which are not always exact repeats. Equal values may be shown once.

Key:
[1] = cited from earlier work
rabbits = assay: Eye irritation rabbits; details: rabbit, in vivo
daphnia = assay: Acute daphnia immobilization EC50, OECD 202; assay type: in vivo; details: for times less toxic for daphnia compared to a fatty amine ethoxylate: in vivo
Text: (§1) The low toxicity of coconut fatty acid copolymers with glycerol is illustrated by the following table

Fish = Fish toxicology LC50, OECD 203, 96 h; assay type: in vivo; details: for Fish toxicology LC50: OECD 203, 96 h; for times less toxic for fish compared to a fatty amine ethoxylate: in vivo
Text: as §1

rats = assay: Acute oral toxicology LD50 in rats; assay type: in vivo
[2] = 1,4-Dioxane content (carcinogen)
Text: The inevitable presence of 1,4-dioxane in all ethoxylated products is the reason why all ethoxylates including coco amide ethoxylates were excluded from consideration in the product of the present invention.

variety of weeds = assay: Extensive field tests in Brazil and South Africa versus standard 360 g/liter liquid formulation; assay type: in vivo; details: surfactant in the glyphosate formulation
Protocol: The product was extensively tested on the field. During eighteen months the soluble powder formulation was applied in different dosages on a variety of weeds in the state of Paraná, Brazil and in the province of […] in the Republic of South Africa and the results were compared with those obtained applying the standard product 360 g/liter liquid formulation side by side on the same fields.
More than one hundred field tests of the Soluble Powder were carried out. Each test consisted in applying different dosages of glyphosate acid on the field using the Soluble Powder object of the present invention and similar dosages of the standard 360 g/liter liquid formulation and comparing the results obtained side by side on the same field. Phytotoxicity of the weeds was measured by sampling and visual counting. All results were recorded and photographs taken before and after the tests.

| Compound | Eye irritation rabbits (rabbits) | times less toxic for daphnia compared to a fatty amine ethoxylate (daphnia) | Biodegradability (Biodegradability) | Fish toxicology LC50 (Fish) | times less toxic for fish compared to a fatty amine ethoxylate (Fish) | also measured |
| --- | --- | --- | --- | --- | --- | --- |
| O=C(O)CNCP(=O)(O)O [Glyphosate, N-(phosphonomethyl)-glycine] | – | – | – | – | – | solubility in water [1]: insoluble |
| Coco amide propyl amine oxide | Irritant | 100 times | >90% | 6 mg/l and >6 mg/l | 15 times | – |
| Fatty amine ethoxylate [reference compound] | Serious eye | – | <60% | 0.42 mg/l | – | Acute oral toxicology LD50 (rats): 200-2000 mg/kg; Acute daphnia immobilization EC50 (daphnia; OECD 202): 0.46 µg/mL; 1,4-Dioxane content (carcinogen) [2]: Up to 25,000 ppm |
| coco amide propyl betaine | – | 100 times | – | – | 15 times | efficiency as surfactant compared with coco amide propyl amine oxide (variety of weeds): just as efficient |
| coconut oil polymer with glyceryl and phthalic anhydride | – | – | >42% | – | – | – |
